Experimental data published in PubChem BioAssay AID1963979 (Molecular Pharmacology Branch, DTP, NCI, 2024).
Blank lines part the entries; values can stand above or below the compound they belong to.

Test system: 361931-004-R-J1-PDC multicell spheroid viability
Assay: Anticancer human tumor 361931-004-R-J1-PDC patient-derived colon adenocarcinoma cell line growth inhibition [PI3K]
Conditions: for IC50: curve of first compound; for viability, T/C: stronger effect = lower value
Summary of the method: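 We assembled tumor spheroids that included a stromal compartment of HUVEC and MSCs, then exposed them to targeted agents alone and together with PI3K pathway inhibitors. Concentration series descended by half-log from clinically achievable Cmax levels. Viability served as the endpoint.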

[1] = second compound 0.00316 µM, first compound 0.0316 µM
[2] = second compound 0.00316 µM, first compound 0.1 µM
[3] = second compound 0.00316 µM, first compound 0.316 µM
[4] = second compound 0.00316 µM, first compound 1 µM
[5] = second compound 0.00316 µM, first compound 3.16 µM
[6] = second compound 0.00316 µM, first compound 10 µM
[7] = second compound 0.01 µM, first compound 0.0316 µM
[8] = second compound 0.01 µM, first compound 0.1 µM
[9] = second compound 0.01 µM, first compound 0.316 µM
[10] = second compound 0.01 µM, first compound 1 µM
[11] = second compound 0.01 µM, first compound 3.16 µM
[12] = second compound 0.01 µM, first compound 10 µM
[13] = second compound 0.0316 µM, first compound 0.0316 µM
[14] = second compound 0.0316 µM, first compound 0.1 µM
[15] = second compound 0.0316 µM, first compound 0.316 µM
[16] = second compound 0.0316 µM, first compound 1 µM
[17] = second compound 0.0316 µM, first compound 3.16 µM
[18] = second compound 0.0316 µM, first compound 10 µM
[19] = second compound 0.1 µM, first compound 0.0316 µM
[20] = second compound 0.1 µM, first compound 0.1 µM
[21] = second compound 0.1 µM, first compound 0.316 µM
[22] = second compound 0.1 µM, first compound 1 µM
[23] = second compound 0.1 µM, first compound 3.16 µM
[24] = second compound 0.1 µM, first compound 10 µM
[25] = second compound 0.316 µM, first compound 0.0316 µM
[26] = second compound 0.316 µM, first compound 0.1 µM
[27] = second compound 0.316 µM, first compound 0.316 µM
[28] = second compound 0.316 µM, first compound 1 µM
[29] = second compound 0.316 µM, first compound 3.16 µM
[30] = second compound 0.316 µM, first compound 10 µM
[31] = second compound 1 µM, first compound 0.0316 µM
[32] = second compound 1 µM, first compound 0.1 µM
[33] = second compound 1 µM, first compound 0.316 µM
[34] = second compound 1 µM, first compound 1 µM
[35] = second compound 1 µM, first compound 3.16 µM
[36] = second compound 1 µM, first compound 10 µM
[37] = second compound 0.00316 µM, first compound 0.00316 µM
[38] = second compound 0.00316 µM, first compound 0.01 µM
[39] = second compound 0.01 µM, first compound 0.00316 µM
[40] = second compound 0.01 µM, first compound 0.01 µM
[41] = second compound 0.0316 µM, first compound 0.00316 µM
[42] = second compound 0.0316 µM, first compound 0.01 µM
[43] = second compound 0.1 µM, first compound 0.00316 µM
[44] = second compound 0.1 µM, first compound 0.01 µM
[45] = second compound 0.316 µM, first compound 0.00316 µM
[46] = second compound 0.316 µM, first compound 0.01 µM
[47] = second compound 1 µM, first compound 0.00316 µM
[48] = second compound 1 µM, first compound 0.01 µM
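Note: spheroids exposed to agents for seven days before readout.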

SMILES: CCN1CCN(Cc2ccc(Nc3ncc(F)c(-c4cc(F)c5nc(C)n(C(C)C)c5c4)n3)nc2)CC1 + COc1c(OCCCN2CCOCC2)ccc2c3n(c(=NC(=O)c4cnc(N)nc4)nc12)CCN3
IC50 (second compound 0.00316 µM): > 1000 nM
IC50 (second compound 0.01 µM): > 1000 nM
IC50 (second compound 0.0316 µM): 864 nM
IC50 (second compound 0.1 µM): 223 nM
IC50 (second compound 0.316 µM): < 3.16 nM
IC50 (second compound 1 µM): < 3.16 nM
viability, T/C [37]: 92.3%
viability, T/C [38]: 101%
viability, T/C [1]: 103%
viability, T/C [2]: 103%
viability, T/C [3]: 94.6%
viability, T/C [4]: 87.6%
viability, T/C [39]: 100%
viability, T/C [40]: 95.1%
viability, T/C [7]: 94.4%
viability, T/C [8]: 85%
viability, T/C [9]: 77.2%
viability, T/C [10]: 64.5%
viability, T/C [41]: 86.7%
viability, T/C [42]: 91.3%
viability, T/C [13]: 80.7%
viability, T/C [14]: 73.5%
viability, T/C [15]: 62.3%
viability, T/C [16]: 48.1%
viability, T/C [43]: 80.8%
viability, T/C [44]: 74.3%
viability, T/C [19]: 60.3%
viability, T/C [20]: 54.3%
viability, T/C [21]: 51.2%
viability, T/C [22]: 39.9%
viability, T/C [45]: 50%
viability, T/C [46]: 44.7%
viability, T/C [25]: 43.2%
viability, T/C [26]: 39.7%
viability, T/C [27]: 39%
viability, T/C [28]: 39.9%
viability, T/C [47]: 22.7%
viability, T/C [48]: 21.8%
viability, T/C [31]: 18.7%
viability, T/C [32]: 22.2%
viability, T/C [33]: 30.3%
viability, T/C [34]: 32.1%

SMILES: Cn1nccc1Nc1nccc(-c2ccn(C(CO)c3ccc(Cl)c(F)c3)c(=O)c2)n1 (stereo not given) + COc1c(OCCCN2CCOCC2)ccc2c3n(c(=NC(=O)c4cnc(N)nc4)nc12)CCN3
IC50 (second compound 0.00316 µM): 9030 nM
IC50 (second compound 0.01 µM): 4530 nM
IC50 (second compound 0.0316 µM): 1490 nM
IC50 (second compound 0.1 µM): 450 nM
IC50 (second compound 0.316 µM): 32.5 nM
IC50 (second compound 1 µM): < 31.6 nM
viability, T/C [1]: 92.5%
viability, T/C [2]: 98.3%
viability, T/C [3]: 90.9%
viability, T/C [4]: 86.3%
viability, T/C [5]: 77%
viability, T/C [6]: 47.2%
viability, T/C [7]: 87.9%
viability, T/C [8]: 94.4%
viability, T/C [9]: 88.7%
viability, T/C [10]: 80.8%
viability, T/C [11]: 59.9%
viability, T/C [12]: 28.6%
viability, T/C [13]: 92%
viability, T/C [14]: 87.7%
viability, T/C [15]: 77.4%
viability, T/C [16]: 64%
viability, T/C [17]: 27.9%
viability, T/C [18]: 12.6%
viability, T/C [19]: 80.8%
viability, T/C [20]: 72.3%
viability, T/C [21]: 58.3%
viability, T/C [22]: 32.8%
viability, T/C [23]: 8.5%
viability, T/C [24]: 3.74%
viability, T/C [25]: 50.8%
viability, T/C [26]: 40.2%
viability, T/C [27]: 26.1%
viability, T/C [28]: 8.67%
viability, T/C [29]: 2.32%
viability, T/C [30]: 2.04%
viability, T/C [31]: 18.4%
viability, T/C [32]: 13.3%
viability, T/C [33]: 8.6%
viability, T/C [34]: 2.23%
viability, T/C [35]: 1.89%
viability, T/C [36]: 1.61%

SMILES: Cn1ncnc1[C@H]1c2n[nH]c(=O)c3cc(F)cc(c23)N[C@@H]1c1ccc(F)cc1 + COc1c(OCCCN2CCOCC2)ccc2c3n(c(=NC(=O)c4cnc(N)nc4)nc12)CCN3
IC50 (second compound 0.00316 µM): > 100 nM
IC50 (second compound 0.01 µM): > 100 nM
IC50 (second compound 0.0316 µM): > 100 nM
IC50 (second compound 0.1 µM): > 100 nM
IC50 (second compound 0.316 µM): 1.1 nM
IC50 (second compound 1 µM): < 0.316 nM
viability, T/C (second compound 0.00316 µM, first compound 0.000316 µM): 105%
viability, T/C (second compound 0.00316 µM, first compound 0.001 µM): 106%
viability, T/C [37]: 97.9%
viability, T/C [38]: 98.2%
viability, T/C [1]: 101%
viability, T/C [2]: 87.8%
viability, T/C (second compound 0.01 µM, first compound 0.000316 µM): 91.1%
viability, T/C (second compound 0.01 µM, first compound 0.001 µM): 97.1%
viability, T/C [39]: 102%
viability, T/C [40]: 93%
viability, T/C [7]: 91.5%
viability, T/C [8]: 84.9%
viability, T/C (second compound 0.0316 µM, first compound 0.000316 µM): 97%
viability, T/C (second compound 0.0316 µM, first compound 0.001 µM): 87%
viability, T/C [41]: 90%
viability, T/C [42]: 82.7%
viability, T/C [13]: 87.3%
viability, T/C [14]: 77.9%
viability, T/C (second compound 0.1 µM, first compound 0.000316 µM): 81.7%
viability, T/C (second compound 0.1 µM, first compound 0.001 µM): 73.5%
viability, T/C [43]: 78.6%
viability, T/C [44]: 72.4%
viability, T/C [19]: 80.3%
viability, T/C [20]: 64.7%
viability, T/C (second compound 0.316 µM, first compound 0.000316 µM): 50.5%
viability, T/C (second compound 0.316 µM, first compound 0.001 µM): 53.9%
viability, T/C [45]: 48.3%
viability, T/C [46]: 41.5%
viability, T/C [25]: 41%
viability, T/C [26]: 39.2%
viability, T/C (second compound 1 µM, first compound 0.000316 µM): 15.9%
viability, T/C (second compound 1 µM, first compound 0.001 µM): 19.1%
viability, T/C [47]: 20.5%
viability, T/C [48]: 19.7%
viability, T/C [31]: 16.3%
viability, T/C [32]: 17.6%

Continued, in another order:

IC50 (second compound 0.00316 µM): 3300 nM
IC50 (second compound 0.01 µM): 2880 nM
IC50 (second compound 0.0316 µM): 2370 nM
IC50 (second compound 0.1 µM): 1680 nM
IC50 (second compound 0.316 µM): 161 nM
IC50 (second compound 1 µM): < 31.6 nM
SMILES: CC(C)NCC(C(=O)N1CCN(c2ncnc3c2C(C)CC3O)CC1)c1ccc(Cl)cc1 (stereo not given) + COc1c(OCCCN2CCOCC2)ccc2c3n(c(=NC(=O)c4cnc(N)nc4)nc12)CCN3
viability, T/C [1]: 102%
viability, T/C [2]: 97.8%
viability, T/C [3]: 95.2%
viability, T/C [4]: 86.9%
viability, T/C [5]: 50.9%
viability, T/C [6]: 19.5%
viability, T/C [7]: 99%
viability, T/C [8]: 100%
viability, T/C [9]: 90.9%
viability, T/C [10]: 78.7%
viability, T/C [11]: 46.9%
viability, T/C [12]: 26.6%
viability, T/C [13]: 95%
viability, T/C [14]: 89.8%
viability, T/C [15]: 94.2%
viability, T/C [16]: 70.6%
viability, T/C [17]: 43.6%
viability, T/C [18]: 25.7%
viability, T/C [19]: 89.9%
viability, T/C [20]: 76.9%
viability, T/C [21]: 71%
viability, T/C [22]: 60.5%
viability, T/C [23]: 39%
viability, T/C [24]: 21.9%
viability, T/C [25]: 58%
viability, T/C [26]: 52.3%
viability, T/C [27]: 47.4%
viability, T/C [28]: 36.8%
viability, T/C [29]: 34.5%
viability, T/C [30]: 21.3%
viability, T/C [31]: 26%
viability, T/C [32]: 21.8%
viability, T/C [33]: 20.8%
viability, T/C [34]: 20.4%
viability, T/C [35]: 17.6%
viability, T/C [36]: 11.6%

IC50 (second compound 0.00316 µM): 2520 nM
IC50 (second compound 0.01 µM): 1910 nM
IC50 (second compound 0.0316 µM): 1820 nM
IC50 (second compound 0.1 µM): 1570 nM
IC50 (second compound 0.316 µM): 49.1 nM
IC50 (second compound 1 µM): < 31.6 nM
SMILES: Cn1ncc(Cl)c1-c1cc(C(=O)NC(CN)Cc2cccc(F)c2)sc1Cl (stereo not given) + COc1c(OCCCN2CCOCC2)ccc2c3n(c(=NC(=O)c4cnc(N)nc4)nc12)CCN3
viability, T/C [1]: 104%
viability, T/C [2]: 111%
viability, T/C [3]: 100%
viability, T/C [4]: 80.6%
viability, T/C [5]: 42.5%
viability, T/C [6]: 27.4%
viability, T/C [7]: 104%
viability, T/C [8]: 102%
viability, T/C [9]: 94.8%
viability, T/C [10]: 66.7%
viability, T/C [11]: 37.2%
viability, T/C [12]: 26.7%
viability, T/C [13]: 94.9%
viability, T/C [14]: 101%
viability, T/C [15]: 90.6%
viability, T/C [16]: 61.6%
viability, T/C [17]: 40.1%
viability, T/C [18]: 25.6%
viability, T/C [19]: 83.4%
viability, T/C [20]: 83.9%
viability, T/C [21]: 74.2%
viability, T/C [22]: 63%
viability, T/C [23]: 31.6%
viability, T/C [24]: 19%
viability, T/C [25]: 54.2%
viability, T/C [26]: 43.5%
viability, T/C [27]: 40.5%
viability, T/C [28]: 35.8%
viability, T/C [29]: 30.9%
viability, T/C [30]: 15.8%
viability, T/C [31]: 19.7%
viability, T/C [32]: 19.4%
viability, T/C [33]: 18.7%
viability, T/C [34]: 20.3%
viability, T/C [35]: 19.7%
viability, T/C [36]: 10.3%
